# Laboratory results taken from ChEMBL document CHEMBL2021863, “Design and synthesis of new 4-pyrazolin-3-yl-1,2,3-triazoles and 1,2,3-triazol-4-yl-pyrazolin-1-ylthiazoles as potential antimicrobial agents” (2012).
# Tested on: Staphylococcus aureus
# Assay: Antimicrobial activity against Staphylococcus aureus ATCC 29213 at 100 ug/ml after 24 hrs by agar well diffusion assay
# Format: functional
# Conditions: ATCC 29213, 24 h, read-out: DIZ
row,SMILES,zone of inhibition at 100 µg/mL
1,Cc1ccc(-n2nnc(C3=NN(c4nc(-c5ccc(Cl)cc5)cs4)C(c4ccc(F)cc4)C3)c2C)cc1 (centres undefined),28 mm
2,Cc1ccc(-n2nnc(C3=NN(c4nc(-c5ccc(Br)cc5)cs4)C(c4ccc(F)cc4)C3)c2C)cc1 (centres undefined),30 mm
3,Cc1ccc(-n2nnc(C(=O)/C=C/c3ccccc3)c2C)cc1,22 mm
4,Cc1ccc(-n2nnc(C(=O)/C=C/c3ccc(C#N)cc3)c2C)cc1,23 mm

# Tested on: Bacillus subtilis
# Assay: Antimicrobial activity against Bacillus subtilis ATCC 6633 at 100 ug/ml after 24 hrs by agar well diffusion assay
# Format: functional
# Conditions: ATCC 6633, 24 h, read-out: DIZ
row,SMILES,zone of inhibition at 100 µg/mL
1,Cc1ccc(-n2nnc(C3=NN(c4nc(-c5ccc(Cl)cc5)cs4)C(c4ccc(F)cc4)C3)c2C)cc1 (centres undefined),30 mm
2,Cc1ccc(-n2nnc(C3=NN(c4nc(-c5ccc(Br)cc5)cs4)C(c4ccc(F)cc4)C3)c2C)cc1 (centres undefined),26 mm
3,Cc1ccc(-n2nnc(C(=O)/C=C/c3ccccc3)c2C)cc1,26 mm
4,Cc1ccc(-n2nnc(C(=O)/C=C/c3ccc(C#N)cc3)c2C)cc1,28 mm

# Tested on: Priestia megaterium
# Assay: Antimicrobial activity against Bacillus megaterium ATCC 9885 at 100 ug/ml after 24 hrs by agar well diffusion assay
# Format: functional
# Conditions: ATCC 9885, 24 h, read-out: DIZ
row,SMILES,zone of inhibition at 100 µg/mL
1,Cc1ccc(-n2nnc(C3=NN(c4nc(-c5ccc(Br)cc5)cs4)C(c4ccc(F)cc4)C3)c2C)cc1 (centres undefined),22 mm

# Tested on: Micrococcus luteus
# Assay: Antimicrobial activity against Sarcina lutea at 100 ug/ml after 24 hrs by agar well diffusion assay
# Format: functional
# Conditions: read-out: DIZ
row,SMILES,zone of inhibition at 100 µg/mL
1,Cc1ccc(-n2nnc(C3=NN(c4nc(-c5ccc(Cl)cc5)cs4)C(c4ccc(F)cc4)C3)c2C)cc1 (centres undefined),22 mm
2,Cc1ccc(-n2nnc(C3=NN(c4nc(-c5ccc(Br)cc5)cs4)C(c4ccc(F)cc4)C3)c2C)cc1 (centres undefined),22 mm
3,Cc1ccc(-n2nnc(C(=O)/C=C/c3ccccc3)c2C)cc1,26 mm
4,Cc1ccc(-n2nnc(C(=O)/C=C/c3ccc(C#N)cc3)c2C)cc1,24 mm

# Tested on: Klebsiella pneumoniae
# Assay: Antimicrobial activity against Klebsiella pneumoniae ATCC 13883 at 100 ug/ml after 24 hrs by agar well diffusion assay
# Format: functional
# Conditions: ATCC 13883, 24 h, read-out: DIZ
row,SMILES,zone of inhibition at 100 µg/mL
1,Cc1ccc(-n2nnc(C3=NN(c4nc(-c5ccc(Cl)cc5)cs4)C(c4ccc(F)cc4)C3)c2C)cc1 (centres undefined),28 mm
2,Cc1ccc(-n2nnc(C3=NN(c4nc(-c5ccc(Br)cc5)cs4)C(c4ccc(F)cc4)C3)c2C)cc1 (centres undefined),24 mm
3,Cc1ccc(-n2nnc(C(=O)/C=C/c3ccccc3)c2C)cc1,16 mm
4,Cc1ccc(-n2nnc(C(=O)/C=C/c3ccc(C#N)cc3)c2C)cc1,24 mm

# Tested on: Pseudomonas aeruginosa
# Assay: Antimicrobial activity against Pseudomonas aeruginosa ATCC 27953 at 100 ug/ml after 24 hrs by agar well diffusion assay
# Format: functional
# Conditions: ATCC 27953, 24 h, read-out: DIZ
row,SMILES,zone of inhibition at 100 µg/mL
1,Cc1ccc(-n2nnc(C3=NN(c4nc(-c5ccc(Cl)cc5)cs4)C(c4ccc(F)cc4)C3)c2C)cc1 (centres undefined),24 mm
2,Cc1ccc(-n2nnc(C(=O)/C=C/c3ccccc3)c2C)cc1,28 mm
3,Cc1ccc(-n2nnc(C(=O)/C=C/c3ccc(C#N)cc3)c2C)cc1,26 mm

# Tested on: Escherichia coli
# Assay: Antimicrobial activity against Escherichia coli ATCC 25922 at 100 ug/ml after 24 hrs by agar well diffusion assay
# Format: functional
# Conditions: ATCC 25922, 24 h, read-out: DIZ
row,SMILES,zone of inhibition at 100 µg/mL
1,Cc1ccc(-n2nnc(C3=NN(c4nc(-c5ccc(Cl)cc5)cs4)C(c4ccc(F)cc4)C3)c2C)cc1 (centres undefined),29 mm
2,Cc1ccc(-n2nnc(C3=NN(c4nc(-c5ccc(Br)cc5)cs4)C(c4ccc(F)cc4)C3)c2C)cc1 (centres undefined),22 mm
3,Cc1ccc(-n2nnc(C(=O)/C=C/c3ccccc3)c2C)cc1,32 mm
4,Cc1ccc(-n2nnc(C(=O)/C=C/c3ccc(C#N)cc3)c2C)cc1,16 mm

# Tested on: Saccharomyces cerevisiae
# Assay: Antifungal activity against Saccharomyces cerevisiae at 100 ug/ml after 24 hrs by agar well diffusion assay
# Format: functional
# Conditions: read-out: DIZ
row,SMILES,zone of inhibition at 100 µg/mL
1,Cc1ccc(-n2nnc(C3=NN(c4nc(-c5ccc(Cl)cc5)cs4)C(c4ccc(F)cc4)C3)c2C)cc1 (centres undefined),28 mm
2,Cc1ccc(-n2nnc(C3=NN(c4nc(-c5ccc(Br)cc5)cs4)C(c4ccc(F)cc4)C3)c2C)cc1 (centres undefined),30 mm
3,Cc1ccc(-n2nnc(C(=O)/C=C/c3ccccc3)c2C)cc1,22 mm
4,Cc1ccc(-n2nnc(C(=O)/C=C/c3ccc(C#N)cc3)c2C)cc1,30 mm

# Tested on: Candida albicans
# Assay: Antifungal activity against Candida albicans NRRL Y-477 at 100 ug/ml after 24 hrs by agar well diffusion assay
# Format: functional
# Conditions: NRRL Y-477, 24 h, read-out: DIZ
row,SMILES,zone of inhibition at 100 µg/mL
1,Cc1ccc(-n2nnc(C3=NN(c4nc(-c5ccc(Cl)cc5)cs4)C(c4ccc(F)cc4)C3)c2C)cc1 (centres undefined),25 mm
2,Cc1ccc(-n2nnc(C3=NN(c4nc(-c5ccc(Br)cc5)cs4)C(c4ccc(F)cc4)C3)c2C)cc1 (centres undefined),30 mm
3,Cc1ccc(-n2nnc(C(=O)/C=C/c3ccccc3)c2C)cc1,24 mm
4,Cc1ccc(-n2nnc(C(=O)/C=C/c3ccc(C#N)cc3)c2C)cc1,24 mm

# Tested on: Staphylococcus aureus
# Assay: Antimicrobial activity against Staphylococcus aureus ATCC 29213 after 24 hrs by two-fold serial dilution method
# Format: functional
# Conditions: ATCC 29213, 24 h
row,SMILES,MIC
1,Cc1ccc(-n2nnc(C3=NN(c4nc(-c5ccc(Cl)cc5)cs4)C(c4ccc(F)cc4)C3)c2C)cc1 (centres undefined),8.25 µg/mL
2,Cc1ccc(-n2nnc(C3=NN(c4nc(-c5ccc(Br)cc5)cs4)C(c4ccc(F)cc4)C3)c2C)cc1 (centres undefined),8.25 µg/mL
3,Cc1ccc(-n2nnc(C(=O)/C=C/c3ccccc3)c2C)cc1,16.5 µg/mL
4,Cc1ccc(-n2nnc(C(=O)/C=C/c3ccc(C#N)cc3)c2C)cc1,16.5 µg/mL

# Tested on: Bacillus subtilis
# Assay: Antimicrobial activity against Bacillus subtilis ATCC 6633 after 24 hrs by two-fold serial dilution method
# Format: functional
# Conditions: ATCC 6633, 24 h
row,SMILES,MIC
1,Cc1ccc(-n2nnc(C3=NN(c4nc(-c5ccc(Cl)cc5)cs4)C(c4ccc(F)cc4)C3)c2C)cc1 (centres undefined),8.25 µg/mL
2,Cc1ccc(-n2nnc(C3=NN(c4nc(-c5ccc(Br)cc5)cs4)C(c4ccc(F)cc4)C3)c2C)cc1 (centres undefined),33 µg/mL
3,Cc1ccc(-n2nnc(C(=O)/C=C/c3ccccc3)c2C)cc1,33 µg/mL
4,Cc1ccc(-n2nnc(C(=O)/C=C/c3ccc(C#N)cc3)c2C)cc1,8.25 µg/mL

# Tested on: Priestia megaterium
# Assay: Antimicrobial activity against Bacillus megaterium ATCC 9885 after 24 hrs by two-fold serial dilution method
# Format: functional
# Conditions: ATCC 9885, 24 h
row,SMILES,MIC
1,Cc1ccc(-n2nnc(C3=NN(c4nc(-c5ccc(Br)cc5)cs4)C(c4ccc(F)cc4)C3)c2C)cc1 (centres undefined),33 µg/mL

# Tested on: Micrococcus luteus
# Assay: Antimicrobial activity against Sarcina lutea after 24 hrs by two-fold serial dilution method
# Format: functional
# Conditions: not given
row,SMILES,MIC
1,Cc1ccc(-n2nnc(C3=NN(c4nc(-c5ccc(Cl)cc5)cs4)C(c4ccc(F)cc4)C3)c2C)cc1 (centres undefined),66 µg/mL
2,Cc1ccc(-n2nnc(C3=NN(c4nc(-c5ccc(Br)cc5)cs4)C(c4ccc(F)cc4)C3)c2C)cc1 (centres undefined),66 µg/mL
3,Cc1ccc(-n2nnc(C(=O)/C=C/c3ccccc3)c2C)cc1,16.5 µg/mL
4,Cc1ccc(-n2nnc(C(=O)/C=C/c3ccc(C#N)cc3)c2C)cc1,16.5 µg/mL

# Tested on: Klebsiella pneumoniae
# Assay: Antimicrobial activity against Klebsiella pneumoniae ATCC 13883 after 24 hrs by two-fold serial dilution method
# Format: functional
# Conditions: ATCC 13883, 24 h
row,SMILES,MIC
1,Cc1ccc(-n2nnc(C3=NN(c4nc(-c5ccc(Cl)cc5)cs4)C(c4ccc(F)cc4)C3)c2C)cc1 (centres undefined),16.5 µg/mL
2,Cc1ccc(-n2nnc(C3=NN(c4nc(-c5ccc(Br)cc5)cs4)C(c4ccc(F)cc4)C3)c2C)cc1 (centres undefined),16.5 µg/mL
3,Cc1ccc(-n2nnc(C(=O)/C=C/c3ccccc3)c2C)cc1,132 µg/mL
4,Cc1ccc(-n2nnc(C(=O)/C=C/c3ccc(C#N)cc3)c2C)cc1,16.5 µg/mL

# Tested on: Pseudomonas aeruginosa
# Assay: Antimicrobial activity against Pseudomonas aeruginosa ATCC 27953 after 24 hrs by two-fold serial dilution method
# Format: functional
# Conditions: ATCC 27953, 24 h
row,SMILES,MIC
1,Cc1ccc(-n2nnc(C3=NN(c4nc(-c5ccc(Cl)cc5)cs4)C(c4ccc(F)cc4)C3)c2C)cc1 (centres undefined),16.5 µg/mL
2,Cc1ccc(-n2nnc(C(=O)/C=C/c3ccccc3)c2C)cc1,8.25 µg/mL
3,Cc1ccc(-n2nnc(C(=O)/C=C/c3ccc(C#N)cc3)c2C)cc1,8.25 µg/mL

# Tested on: Escherichia coli
# Assay: Antimicrobial activity against Escherichia coli ATCC 25922 after 24 hrs by two-fold serial dilution method
# Format: functional
# Conditions: ATCC 25922, 24 h
row,SMILES,MIC
1,Cc1ccc(-n2nnc(C3=NN(c4nc(-c5ccc(Cl)cc5)cs4)C(c4ccc(F)cc4)C3)c2C)cc1 (centres undefined),33 µg/mL
2,Cc1ccc(-n2nnc(C3=NN(c4nc(-c5ccc(Br)cc5)cs4)C(c4ccc(F)cc4)C3)c2C)cc1 (centres undefined),16.5 µg/mL
3,Cc1ccc(-n2nnc(C(=O)/C=C/c3ccccc3)c2C)cc1,8.25 µg/mL
4,Cc1ccc(-n2nnc(C(=O)/C=C/c3ccc(C#N)cc3)c2C)cc1,132 µg/mL

# Tested on: Saccharomyces cerevisiae
# Assay: Antifungal activity against Saccharomyces cerevisiae by two-fold serial dilution method
# Format: functional
# Conditions: not given
row,SMILES,MIC
1,Cc1ccc(-n2nnc(C3=NN(c4nc(-c5ccc(Cl)cc5)cs4)C(c4ccc(F)cc4)C3)c2C)cc1 (centres undefined),16.5 µg/mL
2,Cc1ccc(-n2nnc(C3=NN(c4nc(-c5ccc(Br)cc5)cs4)C(c4ccc(F)cc4)C3)c2C)cc1 (centres undefined),8.25 µg/mL
3,Cc1ccc(-n2nnc(C(=O)/C=C/c3ccccc3)c2C)cc1,66 µg/mL
4,Cc1ccc(-n2nnc(C(=O)/C=C/c3ccc(C#N)cc3)c2C)cc1,8.25 µg/mL

# Tested on: Candida albicans
# Assay: Antifungal activity against Candida albicans NRRL Y-477 by two-fold serial dilution method
# Format: functional
# Conditions: not given
row,SMILES,MIC
1,Cc1ccc(-n2nnc(C3=NN(c4nc(-c5ccc(Cl)cc5)cs4)C(c4ccc(F)cc4)C3)c2C)cc1 (centres undefined),16.5 µg/mL
2,Cc1ccc(-n2nnc(C3=NN(c4nc(-c5ccc(Br)cc5)cs4)C(c4ccc(F)cc4)C3)c2C)cc1 (centres undefined),8.25 µg/mL
3,Cc1ccc(-n2nnc(C(=O)/C=C/c3ccccc3)c2C)cc1,16.5 µg/mL
4,Cc1ccc(-n2nnc(C(=O)/C=C/c3ccc(C#N)cc3)c2C)cc1,16.5 µg/mL
